In article PMC10895676, “Antiviral Activity of Lipophilic Nucleoside Tetraphosphate Compounds” (Journal of Medicinal Chemistry, 2024):
Values joined by “and” are separate entries in the source; they are usually repeats but may differ in a detail not shown here. Equal entries are not always repeated. Where two headings read alike, the source gives them in different places.

Assays:
[1] = Cytotoxicity, inhibition of CEM/TK– cell proliferation; assay type: cell-based; conditions: human, CEM/TK– cells (CD4+ T-cells), read-out: toxicity CC50
HIV-2 (ROD) [2] = assay: Anti-HIV replication assay, HIV-2 (ROD) in thymidine kinase-deficient CEM/TK– cells; assay type: cell-based; conditions: for EC50: Human immunodeficiency virus 2, CEM/TK– cells, mean ± SD, n = 2–3, read-out: CEM/TK– HIV-2 (ROD) EC50; for selectivity index (SI): CC50/EC50, HIV-2 (ROD) in CEM/TK– cells
Protocol: (§1) Inhibition of HIV-1(HE)- and HIV-2(ROD)-induced cytopathogenicity in wild-type CEM/0 CEM CD4^+ T-cells and thymidine kinase-deficient CEM/TK^– cell cultures was measured in microtiter 96-well plates containing ∼3 × 10^5 CEM cells/mL infected with 100 CCID50 of HIV per milliliter and containing appropriate dilutions of the test compounds. After 4–5 days of incubation at 37 °C in a CO2-controlled humidified atmosphere, virus-induced cellular effects and syncytia cell formation were examined microscopically.

[3] = Cytotoxicity, inhibition of CEM cell proliferation; assay type: cell-based; conditions: human, CEM cells (CD4+ T-cells), read-out: toxicity CC50
HIV-1 (HE) = assay: Anti-HIV replication assay, HIV-1 (HE) in wild-type CEM/0 cells; assay type: cell-based; conditions: for EC50: Human immunodeficiency virus 1, CCRF-CEM, wild-type CEM/0 cells, mean ± SD, n = 2–3, read-out: HIV-1 (HE) EC50
Protocol: as §1, with “microscopically. The EC50 (50% effective concentration) was defined as the compound concentration required to inhibit HIV-induced giant cell formation by 50%.” for “microscopically.”

HIV-2 (ROD) [4] = assay: Anti-HIV replication assay, HIV-2 (ROD) in wild-type CEM/0 cells; assay type: cell-based; conditions: for EC50: Human immunodeficiency virus 2, CCRF-CEM, read-out: HIV-2 (ROD) EC50; for selectivity index (SI): CC50/EC50, HIV-2 (ROD) in CEM cells
Protocol: as §1

[5] = Chemical hydrolysis in aqueous buffers (PBS pH 7.3 / 8.0, citrate buffer pH 2.0), RP18-HPLC; assay type: physicochemical; conditions: phosphate buffered saline; 25 mM PBS, pH 7.3, 37 °C; read-out: PBS pH 7.3 t1/2 (converted)
Protocol: All metabolite mixtures were analyzed and quantified by means of analytical RP18-HPLC (UV detection).
The solution was incubated at 37 °C in a thermomixer. […] for each extraction and stored at −30 °C. When testing, samples were warmed up to room temperature, and 25 or 20 μL of the liquid was taken and injected into the analytical RP-18-HPLC instrument. Further aliquots were taken for monitoring the kinetic hydrolysis.
5.88 g of citric acid and 3.58 g of NaCl were dissolved in 82 mL of hydrochloric acid (0.1 mol/L). Then, sodium hydroxide was added to adjust the pH to 2.0.

[6] = cited from earlier work
pig liver esterase (PLE) = assay: Enzymatic hydrolysis with pig liver esterase (PLE); assay type: in vitro ADME; conditions: pig liver esterase in phosphate buffer, PLE in phosphate buffer pH 7.3, 37 °C, read-out: PLE t1/2 (converted)
Protocol: To confirm the enzymatic hydrolysis process, TetraPPPPro-nucleotides 4–9 bearing different kinds of lipophilic groups attached to the δ-phosph(on)ate group were incubated with PLE in phosphate buffer.
Then, 833 μL of 50 mM phosphate buffer (pH 7.3) and 125 μL of DMSO were added to the 6.0 mM hydrolysis solutions. The reaction was started by addition of 62.5 μL of PLE in phosphate buffer (100 units/mL), and the mixture was incubated at 800 rpm at 37 °C in a thermomixer. (1). At different times, aliquots (75 μL) were taken and stopped by the addition of […] of MeOH. The mixture was stored in liquid nitrogen. When testing, samples were warmed up to room temperature, and 60 μL of the liquid was directly injected into HPLC analysis. (2). 40 μL for each extraction was stored in liquid nitrogen. When testing, samples were warmed up to room temperature, and 30 μL of the liquid was taken and injected into the analytical RP-18-HPLC instrument. The calculation of t1/2 was performed analogously to that for the chemical hydrolysis studies.

[7] = Hydrolysis in CEM/0 cell extracts; assay type: in vitro ADME; conditions: human, 37 °C, read-out: CEM/0 cell extracts t1/2 (converted)
Protocol: Next, TetraPPPPro-nucleotides 4–9 were incubated in human CD4^+ T-lymphocyte CEM/0 cell extracts to study their stability and identify the hydrolysis products.
CEM cells were grown in RPMI-1640-based cell culture medium to a final density of ∼3 × 10^6 cells/mL. Cells were centrifuged for 10 min at 1250 rpm at 4 °C and washed twice with cold PBS, and the pellet was resuspended at 10^8 cells/mL and sonicated (Hielscher Ultrasound Techn., 100% amplitude, 3·times for 10 s) to destroy cell integrity. Next, the resulting cell suspension was centrifuged at 10,000 rpm to remove cell debris. Finally, the supernatant was divided into aliquots and frozen at −80 °C.
6.0 mM hydrolysis solutions of compounds 4–9 were prepared from 21 μL of 50 mM DMSO stock solutions and 154 μL of DMSO. Two different samples, including 10 μL of water and 10 μL of 6.0 mM hydrolysis solution, were prepared in 2 mL Eppendorf vials. Next, 50 μL of human CEM cell extracts or 50 μL of human citrate plasma were added to the mixture, the reaction was started, and the mixture was incubated at 37 °C for different time periods. The reactions were stopped by the addition of 150 μL of MeOH. The resulting suspension was kept on ice for 5 min, followed by defrosting and centrifugation at 14,000 rpm (Heraeus, Biofuge Pico) for 22 min. The supernatants (80 or 60 μL) were directly injected into HPLC. The calculation of t1/2 was performed analogously to that for the chemical hydrolysis studies.

[8] = wild-type CEM/0 cells, mean ± SD, n = 2–3

Compound: Cc1cn([C@H]2C=C[C@@H](CO)O2)c(=O)[nH]c1=O [d4T, 3′-deoxy-2′,3′-didehydrothymidine, reference compound]
- CC50 [1]: > 50000 nM
- EC50 (HIV-2 (ROD) [2]): > 50000 nM
- CC50 [3]: > 50000 nM
- EC50 (HIV-1 (HE)): 330 ± 130 nM
- EC50 (HIV-2 (ROD) [4]): 970 ± 500 nM

Compound: CCCCCCCCCCCCOP(=O)(OCCCCCCCCCCCC)OP(=O)(O)OP(=O)(O)OP(=O)(O)OC[C@@H]1C=C[C@H](n2cc(C)c(=O)[nH]c2=O)O1 [4b, δ-(Alkyl-C12; alkyl-C12)-d4T4P]
- half-life at 1.9 mM [5]: 215 h
- CC50 [1]: 84900 nM
- selectivity index (SI) (HIV-2 (ROD) [2]): 2927
- improvement of antiviral activity as compared to the parent d4T (HIV-2 (ROD) [2]; HIV-2, CEM/TK– cells): > 1700 fold
- EC50 (HIV-2 (ROD) [2]): 29 ± 37 nM
- CC50 [3]: 44600 nM
- EC50 (HIV-1 (HE)): 170 ± 100 nM
- selectivity index (SI) (HIV-2 (ROD) [4]): 405
- EC50 (HIV-2 (ROD) [4]; [8]): 110 ± 50 nM

Compound: CCCCCCCCCCCCCCCCCCOP(=O)(OCC(CC)CCCC)OP(=O)(O)OP(=O)(O)OP(=O)(O)OC[C@@H]1C=C[C@H](n2cc(C)c(=O)[nH]c2=O)O1 (stereo partly drawn) [4e, δ-(Alkyl-C8; alkyl-C18)-d4T4P]
- half-life at 1.9 mM [5]: 325 h
- CC50 [1]: 48900 nM
- selectivity index (SI) (HIV-2 (ROD) [2]): 114
- EC50 (HIV-2 (ROD) [2]): 430 ± 210 nM
- CC50 [3]: 44700 nM
- EC50 (HIV-1 (HE)): 440 ± 170 nM
- selectivity index (SI) (HIV-2 (ROD) [4]): 139
- EC50 (HIV-2 (ROD) [4]; [8]): 320 ± 90 nM

Compound: CCCCCCCCCCCCCCCCCCOP(=O)(OCCCCCCCCCCCCCCCCCC)OP(=O)(O)OP(=O)(O)OP(=O)(O)OC[C@@H]1C=C[C@H](n2cc(C)c(=O)[nH]c2=O)O1 [4c, δ-(Alkyl-C18; alkyl-C18)-d4T4P]
- CC50 [1]: 84100 nM
- selectivity index (SI) (HIV-2 (ROD) [2]): 13
- EC50 (HIV-2 (ROD) [2]): 6180 ± 1000 nM
- CC50 [3]: 50000 nM
- EC50 (HIV-1 (HE)): 1990 ± 900 nM
- selectivity index (SI) (HIV-2 (ROD) [4]): 24
- EC50 (HIV-2 (ROD) [4]; [8]): 2090 ± 580 nM

Compound: CCCCCCCCCCCCCCCCCCP(=O)(OCC(CC)CCCC)OP(=O)(O)OP(=O)(O)OP(=O)(O)OC[C@@H]1C=C[C@H](n2cc(C)c(=O)[nH]c2=O)O1 (stereo partly drawn) [5b, δ-(Alkyl-C8)-δ-C-(alkyl-C18)-d4T4P]
- half-life at 1.9 mM [5]: > 1000 h
- CC50 [1]: 50000 nM
- selectivity index (SI) (HIV-2 (ROD) [2]): 312
- EC50 (HIV-2 (ROD) [2]): 160 ± 130 nM
- CC50 [3]: > 100000 nM
- EC50 (HIV-1 (HE)): 1440 ± 700 nM
- selectivity index (SI) (HIV-2 (ROD) [4]): >77
- EC50 (HIV-2 (ROD) [4]; [8]): 1300 ± 640 nM

Compound: β-(AB-C4)-β-C-(C18)-d4TDP [33b]
- PBS pH 7.3 t1/2 ([6]; buffer): > 1000 h

Compound: CCCCCCCCCCCCCCCCCCOP(=O)(OCc1ccc(OC(=O)CCCC)cc1)OP(=O)(O)OP(=O)(O)OC[C@@H]1C=C[C@H](n2cc(C)c(=O)[nH]c2=O)O1 (stereo partly drawn) [2a, γ-(AB-C4; C18)-d4TTP]
- PBS pH 7.3 t1/2 ([6]; PBS): 237 h

Compound: β-(AB-C4; C18)-d4TDP [33a]
- PBS pH 7.3 t1/2 ([6]; buffer): 406 h

Compound: CCCCCCCCCCCCCCCCOC(=O)Oc1ccc(COP(=O)(OCc2ccc(OC(=O)CCCC)cc2)OP(=O)(O)OP(=O)(O)OP(=O)(O)OC[C@@H]2C=C[C@H](n3cc(C)c(=O)[nH]c3=O)O2)cc1 (stereo partly drawn) [compound 9, δ-(AB-C4; ACB-C16)-d4T4P]
- half-life at 1.9 mM [5]: 25 h
- CC50 [1]: 50000 nM
- selectivity index (SI) (HIV-2 (ROD) [2]): 5
- EC50 (HIV-2 (ROD) [2]): 9710 ± 4780 nM
- half-life at 0.45 mM (pig liver esterase (PLE)): 1.03 h
- CC50 [3]: 76800 nM
- half-life at 0.86 mM [7]: 2.58 h
- EC50 (HIV-1 (HE)): 170 ± 50 nM
- selectivity index (SI) (HIV-2 (ROD) [4]): 365
- EC50 (HIV-2 (ROD) [4]; [8]): 210 ± 110 nM

Compound: β-(alkyl-C4)-β-C-(alkyl-C18)-d4TDP
- PBS pH 7.3 t1/2 ([6]; buffer): > 3000 h

Compound: CCCCCCCCCCCCCCCCCCP(=O)(OCc1ccc(OC(=O)CCCC)cc1)OP(=O)(O)OP(=O)(O)OP(=O)(O)OC[C@@H]1C=C[C@H](n2cc(C)c(=O)[nH]c2=O)O1 (stereo partly drawn) [compound 7, δ-(AB-C4)-δ-C-(alkyl-C18)-d4T4P]
- half-life at 1.9 mM [5]: > 600 h
- CC50 [1]: 36900 nM
- selectivity index (SI) (HIV-2 (ROD) [2]): 5700 and 5677
- EC50 (HIV-2 (ROD) [2]): 6.5 ± 5.7 nM
- half-life at 0.45 mM (pig liver esterase (PLE)): 0.5 h
- CC50 [3]: 39400 nM
- half-life at 0.86 mM [7]: > 8 h
- increase in antiviral potency as compared to d4T (HIV-1 (HE); HIV-1, CEM/0 cells): 36 fold
- EC50 (HIV-1 (HE)): 9.2 ± 8.2 nM
- selectivity index (SI) (HIV-2 (ROD) [4]): 4330
- increase in antiviral potency as compared to d4T (HIV-2 (ROD) [4]; HIV-2, CEM/0 cells): 107 fold
- EC50 (HIV-2 (ROD) [4]; [8]): 9.1 ± 7.7 nM
